Data as given in ChEMBL document CHEMBL1152721, “A simple in vitro assay for assessing the reactivity of nitrile containing compounds” (Bioorg Med Chem Lett, 2009).

What was measured:
[1] = Binding affinity to glutathione assessed as typical half life
[2] = Binding affinity to cysteine assessed as typical half life
[3] = Binding affinity to cysteine assessed as typical half life at 1.4 nM
[4] = Binding affinity to glutathione assessed as typical half life at 1.4 nM

T1/2 [1] [h] | T1/2 [2] [h] | T1/2 [3] [h] | T1/2 [4] [h] | Compound
7.3 | – | – | – | COCCN1CCC(Cc2ccc(C(=O)NCc3cnc(C#N)nc3NCC(C)(C)C)cc2)CC1
40 | 2 | – | – | COC(=O)C1=C(C#N)NC(C)=C(C(=O)OC(C)C)C1c1cccc([N+](=O)[O-])c1 (stereo not given)
– | – | < 10 | 97 | CCCN1CCN(c2ccc(C(=O)NC3(C(=O)NCC#N)CCCCC3)cc2)CC1
